According to patent publication US4401660A, “Ester derivatives of 5-O-mycaminosyl tylonolide and method of using same” (Eli Lilly and Company, priority 1981, dated 1983):

Key:
[1] = system: Staphylococcus aureus S13E; test: MIC, standard agar-dilution assay (Table II); type: cell-based; parameters: unit not given here
Method: (§1) The MIC's in Table II were determined by standard agar-dilution assays. The MIC's in Table III were obtained using a conventional broth-dilution microtiter test.

[2] = system: Staphylococcus aureus V41; test: MIC, standard agar-dilution assay (Table II); type: cell-based; parameters: unit not given here; settings: Staphylococcus aureus V41, penicillin-resistant strain
Method: as §1

[3] = system: Staphylococcus epidermidis EPI1; test: MIC, standard agar-dilution assay (Table II); type: cell-based; parameters: unit not given here
Method: as §1

[4] = system: Staphylococcus epidermidis EPI2; test: MIC, standard agar-dilution assay (Table II); type: cell-based; parameters: unit not given here
Method: as §1

[5] = system: Staphylococcus aureus X1.1; test: MIC, standard agar-dilution assay (Table II); type: cell-based; parameters: unit not given here
Method: as §1

[6] = system: Streptococcus pyogenes C203; test: MIC, standard agar-dilution assay (Table II); type: cell-based; parameters: unit not given here
Method: as §1

[7] = system: Streptococcus pneumoniae Park I; test: MIC, standard agar-dilution assay (Table II); type: cell-based; parameters: unit not given here
Method: as §1

[8] = system: Staphylococcus aureus X400; test: MIC, standard agar-dilution assay (Table II); type: cell-based; parameters: unit not given here; settings: Staphylococcus aureus X400, methicillin-resistant strain
Method: as §1

[9] = system: Streptococcus Group D X66; test: MIC, standard agar-dilution assay (Table II); type: cell-based; parameters: unit not given here
Method: as §1

[10] = system: Streptococcus Group D 9960; test: MIC, standard agar-dilution assay (Table II); type: cell-based; parameters: unit not given here
Method: as §1

[11] = system: Mycoplasma synoviae; test: MIC, broth-dilution microtiter test (Table III); type: cell-based; parameters: unit not given here
Method: as §1

[12] = system: Streptococcus sp. 80; test: MIC, broth-dilution microtiter test (Table III); type: cell-based; parameters: unit not given here
Method: as §1

[13] = system: Pasteurella multocida 22A; test: MIC, broth-dilution microtiter test (Table III); type: cell-based; parameters: unit not given here
Method: as §1

[14] = system: Pasteurella haemolytica 41D; test: MIC, broth-dilution microtiter test (Table III); type: cell-based; parameters: unit not given here
Method: as §1

[15] = system: Pasteurella multocida 40G; test: MIC, broth-dilution microtiter test (Table III); type: cell-based; parameters: unit not given here
Method: as §1

[16] = system: Pasteurella haemolytica 22C; test: MIC, broth-dilution microtiter test (Table III); type: cell-based; parameters: unit not given here
Method: as §1

[17] = system: Pasteurella multocida 60A; test: MIC, broth-dilution microtiter test (Table III); type: cell-based; parameters: unit not given here; settings: avian isolate
Method: as §1

[18] = system: Mycoplasma hyorhinis; test: MIC, broth-dilution microtiter test (Table III); type: cell-based; parameters: unit not given here
Method: as §1

[19] = system: Staphylococcus aureus; test: MIC, broth-dilution microtiter test (Table III); type: cell-based; parameters: unit not given here
Method: as §1

[20] = system: Mycoplasma gallisepticum; test: MIC, broth-dilution microtiter test (Table III); type: cell-based; parameters: unit not given here
Method: as §1

[21] = system: Pasteurella multocida 17E; test: MIC, broth-dilution microtiter test (Table III); type: cell-based; parameters: unit not given here; settings: bovine isolate
Method: as §1

[22] = system: Pasteurella haemolytica 23C; test: MIC, broth-dilution microtiter test (Table III); type: cell-based; parameters: unit not given here
Method: as §1

[23] = system: Pasteurella multocida 68C; test: MIC, broth-dilution microtiter test (Table III); type: cell-based; parameters: unit not given here
Method: as §1

[24] = system: Pasteurella multocida; test: Treatment of Pasteurella infections in chicks (Table V); type: in vivo, one-day-old chicks; settings: Pasteurella multocida, sc, 4 h; 30 mg/kg by subcutaneous injection one and four hours post challenge; read-out: Deaths in Treated Chicks/Number Treated (converted)
Method: Certain OMT ester derivatives are active in vivo against Pasteurella infections. Table V summarizes the results of tests in which the ester derivatives were administered to one-day-old chicks at a dosage level of 30 mg/kg by subcutaneous injection one and four hours post challenge of the chicks with Pasteurella multocida (0.1 ml of a 10^-3 dilution of a 20-hour tryptose broth culture of avian P. multocida given subcutaneously). All nonmedicated infected chicks (ten in each control group) died within 24 hours of Pasteurella challenge.

[25] = system: Haemophilus influenzae R252; test: MIC, standard agar-dilution assay (Table II); type: cell-based; parameters: unit not given here; settings: Haemophilus influenzae R252, ampicillin-resistant strain
Method: as §1

[26] = system: Haemophilus influenzae Holt; test: MIC, standard agar-dilution assay (Table II); type: cell-based; parameters: unit not given here; settings: ampicillin-sensitive strain
Method: as §1

Row | SMILES | minimal inhibitory concentration (MIC) [1] | minimal inhibitory concentration (MIC) [2] | minimal inhibitory concentration (MIC) [3] | minimal inhibitory concentration (MIC) [4] | minimal inhibitory concentration (MIC) [5] | minimal inhibitory concentration (MIC) [6] | minimal inhibitory concentration (MIC) [7] | minimal inhibitory concentration (MIC) [8] | minimal inhibitory concentration (MIC) [9] | minimal inhibitory concentration (MIC) [10] | minimal inhibitory concentration (MIC) [11] | minimal inhibitory concentration (MIC) [12] | minimal inhibitory concentration (MIC) [17] | minimal inhibitory concentration (MIC) [18] | minimal inhibitory concentration (MIC) [19] | minimal inhibitory concentration (MIC) [20] | minimal inhibitory concentration (MIC) [21] | mortality at 30 mg/kg [24] [%] | minimal inhibitory concentration (MIC) [25] | minimal inhibitory concentration (MIC) [26] | further results
1 | CCC1OC(=O)CC(O)C(C)C(OC2OC(C)C(O)C(N(C)C)C2OC(C)=O)C(CC=O)CC(C)C(=O)C=CC(C)=CC1COC(=O)Cc1ccc(Cl)cc1 (centres unmarked) [Compound 31, 2'-O-Acetyl-23-O-(p-chlorophenylacetyl)-OMT] | 0.125 | 0.125 | 0.125 | 0.25 | 0.125 | 0.125 | 0.03 | 0.25 | 0.125 | 0.125 | < 0.05 | < 0.05 | 0.78 | 3.12 | < 0.05 | < 0.05 | 1.56 | 100 |  |  | minimal inhibitory concentration (MIC) [13]: 1.56; minimal inhibitory concentration (MIC) [14]: 3.12; minimal inhibitory concentration (MIC) [15]: 1.56; minimal inhibitory concentration (MIC) [16]: 1.56; minimal inhibitory concentration (MIC) [22]: 1.56; minimal inhibitory concentration (MIC) [23]: 0.78
2 | CCC1OC(=O)CC(O)C(C)C(OC2OC(C)C(OC(C)=O)C(N(C)C)C2OC(C)=O)C(CC=O)CC(C)C(=O)C=CC(C)=CC1COC(=O)[C@H](O)c1ccccc1 (stereo partly drawn) [Compound 41, 2',4'-Di-O-acetyl-23-O-(D-mandeloyl)-OMT] | 0.25 | 0.25 | 0.25 | 0.25 | 0.125 | 0.06 | 0.03 | 0.5 | 0.125 | 0.25 | 0.39 | 0.195 | 3.12 | 12.5 | 0.78 | 0.195 | 3.12 | 100 |  |  | minimal inhibitory concentration (MIC) [13]: 3.12; minimal inhibitory concentration (MIC) [14]: 6.25; minimal inhibitory concentration (MIC) [15]: 3.12; minimal inhibitory concentration (MIC) [16]: 6.25; minimal inhibitory concentration (MIC) [22]: 6.25; minimal inhibitory concentration (MIC) [23]: 3.12
3 | CCC1OC(=O)CC(O)C(C)C(OC2OC(C)C(O)C(N(C)C)C2O)C(CC=O)CC(C)C(=O)C=CC(C)=CC1COC(=O)Cc1ccc(Cl)cc1 (centres unmarked) [Compound 32, 23-O-(p-Chlorophenylacetyl)-OMT] | 0.125 | 0.25 | 0.125 | 0.25 | 0.125 | 0.06 | 0.03 | 0.25 | 0.125 | 0.125 | < 0.05 | 0.097 | 0.78 | 3.12 | 0.097 | < 0.05 | 1.56 | 20 |  |  | minimal inhibitory concentration (MIC) [13]: 0.78; minimal inhibitory concentration (MIC) [14]: 3.12; minimal inhibitory concentration (MIC) [15]: 1.56; minimal inhibitory concentration (MIC) [16]: 1.56; minimal inhibitory concentration (MIC) [22]: 3.12; minimal inhibitory concentration (MIC) [23]: 0.39
4 | CCC1OC(=O)CC(O)C(C)C(OC2OC(C)C(OC(C)=O)C(N(C)C)C2OC(C)=O)C(CC=O)CC(C)C(=O)C=CC(C)=CC1COC(=O)CC(C)C (centres unmarked) [Compound 21, 2',4'-Di-O-acetyl-23-O-i-valeryl-OMT] | 0.5 | 0.5 | 0.5 | 0.5 | 0.5 | 0.5 | 0.5 | 1 | 0.5 | 0.5 | < 0.05 | 0.195 | 1.56 | 0.78 | 0.39 | < 0.05 | 1.56 | 100 | 8 | 2 | 
5 | CCCCCCCC(=O)OCC1C=C(C)C=CC(=O)C(C)CC(CC=O)C(OC2OC(C)C(O)C(N(C)C)C2O)C(C)C(O)CC(=O)OC1CC (centres unmarked) [Compound 24] | 0.25 | 0.5 | 0.25 | 0.25 | 0.25 | 0.5 | 0.125 | 0.5 | 0.5 | 0.5 | 0.097 | 0.39 | 6.25 | 6.25 | 0.78 | < 0.05 | 6.25 | 10 | 4 | 4 | 
6 | CCCCC(=O)OCC1C=C(C)C=CC(=O)C(C)CC(CC=O)C(OC2OC(C)C(OC(C)=O)C(N(C)C)C2OC(C)=O)C(C)C(O)CC(=O)OC1CC (centres unmarked) [Compound 19] | 0.25 | 0.25 | 0.125 | 0.125 | 0.25 | 0.25 | 0.03 | 0.5 | 0.5 | 0.5 | < 0.05 | < 0.05 | 3.12 | 6.25 | 0.39 | < 0.05 | 1.56 | 100 | 2 | 2 | 
7 | CCCC(=O)OCC1C=C(C)C=CC(=O)C(C)CC(CC=O)C(OC2OC(C)C(O)C(N(C)C)C2O)C(C)C(O)CC(=O)OC1CC (centres unmarked) [Compound 16] | 0.25 | 0.25 | 0.25 | 0.25 | 0.25 | 0.25 | 0.06 | 0.5 | 0.25 | 0.25 | 0.097 | 0.195 | 3.12 | 0.78 | 0.39 | < 0.05 | 1.56 | 60 | 2 | 2 | 
